# According to US5545617A, “Therapeutic regulation of abnormal conjunctival goblet cell mucous secretion” (The Schepens Eye Research Institute, Inc., priority 1993, dated 1996):
# Several values for one entry are separate records, joined by “and”; a condition that tells them apart may be missing. Identical values can stand only once. Counter-ions that a name gives are not always drawn. Like-named read-outs stand apart in the source and are kept apart here.
# What was measured:
# [1] = test system: conjunctival goblet cell mucous secretion; details: cited from earlier work
# [2] = test system: conjunctival goblet cell mucous secretion; details: 100 μg topical, rabbits, cited from earlier work
# [3] = test system: conjunctival goblet cell mucous secretion; assay: in vivo rat model: topical agents, density of mucin-containing goblet cells (alcian blue/PAS);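 on all read-outs here: rat eyes dosed topically with 20 µl drops every 20 min over 1 hr, non-secreted goblet cells counted in three 0.16 mm^2 conjunctival areas, lower density means more mucous secretion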; details: for (Stimulus) Optimal Effective Conc. (M): Table 1; for (Stimulus) Max % Increase in Secretion: Table 1, at optimal effective conc.; for conjunctival goblet cell mucous secretion (in words): topical application, summary of Example II; for concentration giving the maximum effect on goblet cell density: topical; for goblet cell mucous secretion (in words): summary of Example I
# Experimental: Thus, the in vivo rat model can be used to study conjunctival goblet cell mucous secretion. With this model, the ocular surface of anesthetized rats is treated topically or subconjunctivally. After treatment, the animals are euthanized, the ocular surface is fixed, conjunctival tissue is removed and mucus in the secretory granules of goblet cells stained with alcian blue and periodic acid-Schiff's (PAS) reagents to indicate mucin-containing goblet cells. The number of mucin-containing goblet cells is then determined. A decrease in the number of mucin-containing goblet cells indicates an increase in goblet cell secretion.
# To determine the effect of topically applied solutions, experimental solutions (20 μl drops) were placed on each eye from the temporal region every 20 min for 1 hr. The solutions were carefully removed with a cotton-tipped applicator from the nasal region of the eyes before placement of the next drop or before euthanization. […] Because conjunctival goblet cell density is not uniform throughout the conjunctiva, care was taken to use a specific area for sampling. […] Conjunctival buttons were then dissected and tissue placed epithelial side up on gelatin-coated, glass microscope slides. […] Mucin contained in the secretory granules of the goblet cells was stained with alcian blue and periodic acid-Schiff (PAS) stain (79). The number of mucin-containing goblet cells was counted in a masked fashion using light microscopy (standard Zeiss microscope) at 160× magnification. The density of mucin-containing goblet cells was determined by averaging counts of goblet cells in three 0.16 mm^2 areas in each button. A decrease in mucin containing goblet cell number per unit area (density) indicated an increase in mucous secretion.
# The mucin-containing goblet cells stained purple and fuchsia with alcian blue and PAS, respectively. By focusing through the tissue, cells with moderate to intense staining and sharp, defined cell borders were considered non-secreted and were counted. Cells with very light stain, absence of color, indistinguishable color from background staining and fuzzy borders were considered cells that had secreted mucus and were not counted. Following these criteria, the non-secreted mucin-containing goblet cells in the three 0.16 mm^2 areas were counted, averaged and expressed as mucin-containing goblet cell density. Therefore, a decrease in mucin-containing goblet cell density indicated mucous secretion.
# To determine the effect of topically applied compounds, an experimental buffer containing the test compound (20 μl drops) was placed on one eye from the temporal region every 20 min for 1 hr unless otherwise indicated. […] The solutions were removed from the nasal region of the eye with a cotton-tipped applicator. After the 1 hr protocol, animals were euthanized with sodium pentobarbital.
# [4] = test system: conjunctival goblet cell mucous secretion; assay: local anesthetics on sensory stimulation (corneal debridement) of goblet cell mucous secretion; type: in vivo, rat
# Experimental: Rats were anesthetized with sodium pentobarbital (65 mg/kg).
# Fifteen min after application of local anesthetic, the central cornea of one eye was wounded by debridement (2-3 mm diameter area), the other was sham-debrided and 5 min later the animal was euthanized with intraperitoneal sodium pentobarbital ([…]).
# [5] = test system: conjunctival goblet cells; assay: light microscopy of H and E stained conjunctival sections after topical lidocaine; type: in vivo, rat; details: 1% topical
# Experimental: The globe of the eye was excised. The posterior half of the globe was removed, followed by removal of the lens and iris. The remaining tissue (the ocular surface) including the cornea, the limbus, and the bulbar conjunctiva was frozen in O. C. T. Compound (Miles Inc., Elkart, Ind.).
# Tissue sections (20 μm) were prepared from the ocular surface and stained with hematoxylin and eosin (H and E). Sections were examined using an Olympus Microscope (BH-2; Micro-Tech Optical, Inc., Hudson, Mass.).
# [6] = test system: conjunctival goblet cell density; details: long term exposure of rabbit ocular surface; cited from earlier work
# [7] = 10^-8 M topical, 1 hr, inferior conjunctiva
# [8] = 10^-4 M topical, 1 hr, inferior conjunctiva
# [9] = 10^-8 M topical, 1 hr, Example II
compound,measurement,setting,value
Nc1ncnc2c1nc(Br)n2[C@@H]1O[C@@H]2COP(=O)(O)O[C@H]2[C@H]1O [8-Br-cAMP],mucin discharge,[1],unaffected
Nc1nc2c(nc(Br)n2[C@@H]2O[C@@H]3COP(=O)(O)O[C@H]3[C@H]2O)c(=O)[nH]1 [8-Br-cGMP],mucin discharge,[1],2-3 fold
"CCCC[C@H](C)C(O)C#CC1CCC(=O)C1C/C=C\CCCC(=O)OC (stereo partly drawn) [FCE20700, 11-deoxy-13,14-didehydro-16(S)-methylester methyl PGE2]",goblet cells with mucous secretion,[2]; 0.5 hr,86.9%
same,goblet cells with mucous secretion,[2]; 2.5 hr,90.3%
"C[N+](C)(C)CCOC(N)=O.[Cl-] [carbachol, carbamyl choline chloride]",effect on mucin-containing goblet cell density,[3]; 10^-5 -10^-4 M topical,not at 10^-5 -10^-4 M
same,decrease in mucin-containing goblet cell density from contralateral control eye,"[3]; 10^-6 M topical, 1 hr",40%
same,effect on mucin-containing goblet cell density,[3]; 10^-7 M topical,decreased mucin-containing goblet cell density
same,(Stimulus) Optimal Effective Conc. (M),[3],10^-6 M
same,(Stimulus) Max % Increase in Secretion,[3],41%
same,conjunctival goblet cell mucous secretion (in words),[3],stimulate conjunctival goblet cell mucous secretion
same,concentration giving the maximum effect on goblet cell density,"[3]; 1 hr, Example II",10^-6 M
"CCCCC(C)(C)[C@H](O)/C=C/[C@H]1[C@H](O)CC(=O)[C@@H]1C/C=C\CCCC(=O)O [dmPGE2, 16,16-dimethyl-prostaglandin E2]","mucin-containing goblet cell density, inferior bulbar conjunctiva","[3]; 1 μM topical, 1 hr, vs control",did not differ significantly from control values
same,"mucin-containing goblet cell density, inferior bulbar conjunctiva","[3]; 10 μM topical, 1 hr, vs control",did not differ significantly from control values
same,decrease in mucin-containing goblet cell density from buffer-treated eyes,"[3]; 100 μM topical, 1 hr, inferior conjunctiva",30% and 39%
same,"mucin-containing goblet cell density, inferior bulbar conjunctiva","[3]; 100 μM topical, 1 hr, mean±SE",36±12 goblet cells/0.16 mm^2
same,goblet cell mucous secretion (in words),[3]; 100 μM topical,increased goblet cell mucous secretion from inferior but not superior conjunctiva
same,"mucin-containing goblet cell density, superior bulbar conjunctiva","[3]; 100 μM, 10 μM, 1 μM topical, 1 hr, vs contralateral control or buffer-treated eyes","Neither 100 μM, 10 μM, nor 1 μM dmPGE2 significantly altered the density"
same,"electron microscopy of goblet cells, inferior bulbar conjunctiva",[3]; 600 μM (FIG. 5B),the goblet cells secreted mucous onto the ocular surface
"NCCc1ccc(O)c(O)c1 [dopamine, 3-hydroxytyramine]",decrease in mucin-containing goblet cell density from contralateral control,[3]; [7],64%
same,(Stimulus) Optimal Effective Conc. (M),[3],10^-8 M
same,(Stimulus) Max % Increase in Secretion,[3],64%
same,conjunctival goblet cell mucous secretion (in words),[3],stimulate conjunctival goblet cell mucous secretion
same,concentration giving the maximum effect on goblet cell density,"[3]; 1 hr, Example II",10^-8 M
"CNC[C@H](O)c1ccc(O)c(O)c1 [epinephrine, (-)-epinephrine]","electron microscopy of goblet cells, inferior bulbar conjunctiva",[3]; 1 μM (FIG. 5D),some of the goblet cells secreted mucus onto the ocular surface in an all or none fashion
same,goblet cell mucous secretion (in words),[3]; 100 μM topical,stimulated mucous secretion
same,decrease in mucin-containing goblet cell density from contralateral control,[3]; [8],46%
same,"mucin-containing goblet cell density, inferior conjunctiva","[3]; 10^-4 M topical, 1 hr, Example I, P<0.04 vs buffer",159±35 cells
same,"mucin-containing goblet cell density, inferior conjunctiva","[3]; 10^-6 M topical, 1 hr, Example I, unchanged vs buffer",200±33 cells
same,"mucin-containing goblet cell density, inferior conjunctiva","[3]; 10^-8 M topical, 1 hr, Example I, unchanged vs buffer",180±55 cells
same,(Stimulus) Optimal Effective Conc. (M),[3],10^-2 M
same,(Stimulus) Max % Increase in Secretion,[3],52%
same,conjunctival goblet cell mucous secretion (in words),[3],stimulate conjunctival goblet cell mucous secretion
same,concentration giving the maximum effect on goblet cell density,"[3]; 1 hr, Example II",10^-4 M
"CCN(CC)CC(=O)Nc1c(C)cccc1C [lidocaine, lidocaine hydrochloride]",effect on sensory stimulation of mucous secretion,[4]; 1% sub-conjunctival injection alone,inhibited sensory stimulation of mucous secretion
same,"mucin-containing goblet cells in treated, wounded eyes",[4]; 1% sub-conjunctival injection prior to the wound,100±28 cells
same,"mucin-containing goblet cells in treated, contralateral sham-wounded eyes","[4]; 1% sub-conjunctival injection, sham-wounded",98±24 cells
same,effect on sensory stimulation of mucous secretion,[4]; 1% topical alone,inhibited sensory stimulation of mucous secretion
same,effect on sensory stimulation of mucous secretion,[4]; 1% topical and sub-conjunctival injection,inhibited the sensory stimulation of goblet cell mucous secretion
same,"mucin-containing goblet cells in treated, contralateral sham-wounded eyes","[4]; 1% topical and sub-conjunctival injection, sham-wounded",110±25 cells
same,"mucin-containing goblet cells in treated, wounded eyes","[4]; 1% topical and sub-conjunctival injection, then wounded",132±21 cells
same,"mucin-containing goblet cells in treated, wounded eyes",[4]; 1% topical prior to the wound,84±7 cells
same,"mucin-containing goblet cells in treated, sham-wounded eyes","[4]; 1% topical, sham-wounded",78±5 cells
same,goblet cells detected in H- and E-stained sections,[5]; 5 min (FIG. 6B),some goblet cells
same,goblet cells detected in H- and E-stained sections,[5]; 10 min (FIG. 6C),numerous goblet cells
"CNC[C@H](O)c1cccc(O)c1 [phenylephrine, L-phenylephrine hydrochloride]",conjunctival goblet cell density,[6],does not significantly affect conjunctival goblet cell density
same,decrease in mucin-containing goblet cell density from contralateral control,[3]; [8],40%
same,(Stimulus) Optimal Effective Conc. (M),[3],10^-4 M
same,(Stimulus) Max % Increase in Secretion,[3],40%
same,conjunctival goblet cell mucous secretion (in words),[3],stimulate conjunctival goblet cell mucous secretion
same,concentration giving the maximum effect on goblet cell density,"[3]; 1 hr, Example II",10^-4 M
"CCCOc1ccc(C(=O)OCCN(CC)CC)cc1N [proparacaine, Proparacaine hydrochloride]",inhibition of sensory stimulation of mucous secretion,"[4]; 0.5% topical, 15 min before corneal debridement",unable to inhibit sensory stimulation of mucous secretion
"NCCc1c[nH]c2ccc(O)cc12 [serotonin, 5-hydroxytryptamine]",decrease in mucin-containing goblet cell density from contralateral control,[3]; [7],54%
same,"mucin-containing goblet cell density, inferior conjunctiva",[3]; [9],148±27 cells
same,(Stimulus) Optimal Effective Conc. (M),[3],10^-8 M
same,(Stimulus) Max % Increase in Secretion,[3],54%
same,conjunctival goblet cell mucous secretion (in words),[3],stimulate conjunctival goblet cell mucous secretion
same,concentration giving the maximum effect on goblet cell density,"[3]; 1 hr, Example II",10^-8 M
Substance P,decrease in mucin-containing goblet cell density from contralateral control eye,"[3]; 10^-6 M topical, 1 hr",58%
same,mucin-containing goblet cell density,"[3]; 10^-6 M topical, 1 hr, Example II",77±18 cells
same,effect on mucin-containing goblet cell density,[3]; 10^-10 or 10^-8 M topical,not at 10^-10 or 10^-8 M
same,(Stimulus) Optimal Effective Conc. (M),[3],10^-6 M
same,(Stimulus) Max % Increase in Secretion,[3],42%
same,conjunctival goblet cell mucous secretion (in words),[3],stimulate conjunctival goblet cell mucous secretion
Vasoactive Intestinal Peptide [VIP],decrease in mucin-containing goblet cell density from contralateral control,[3]; [7],39%
same,"mucin-containing goblet cell density, inferior conjunctiva",[3]; [9],150±23 cells
same,(Stimulus) Optimal Effective Conc. (M),[3],10^-8 M
same,(Stimulus) Max % Increase in Secretion,[3],39%
same,conjunctival goblet cell mucous secretion (in words),[3],stimulate conjunctival goblet cell mucous secretion
same,concentration giving the maximum effect on goblet cell density,"[3]; 1 hr, Example II",10^-8 M
